Test results from patent publication US20190142971A1, “FORMULATION AND DELIVERY OF MODIFIED NUCLEOSIDE, NUCLEOTIDE, AND NUCLEIC ACID COMPOSITIONS” (ModernaTX, Inc., priority 2013, published 2019).

Assays:
Sprague-Dawley rats = test: Example 71: toxicity study of luciferase mRNA in rats: weight, electrolytes, hematology, WBC, serum chemistry, liver proteins (Tables 104-110); type: in vivo; details: for Mean weight Gain / Weight Gain: 7 days after administration; for ALP / ALT / AST / Albumin / Basophils (BASO %) / Bicarbonate / CPK / Calcium / Chloride / Eosinophils (EOS %) / Globulin / HCT / HGB / Lymphocytes (LYM %) / MCH / MCV / Monocytes (MON %) / Neutrophil (NEU-SEG %) / Phosphorus / Potassium / RBC / Sodium / Total Protein / WBC / MCHC: after 7 days
Experimental: A control group were administered the formulation buffer (F. Buffer). After 7 days the rats were sacrificed.
The rats were weighed before the administration of mRNA and 7 days after administration. […] Each group analyzed consumed about the same amount of food over the course of the study.
After 7 days the rats were sacrificed and samples were taken to determine electrolytes. The calcium, bicarbonate, potassium, phosphorus, chloride and sodium levels in each group were analyzed.
After 7 days the rats were sacrificed and samples were taken to determine hematology levels. The red blood cell (RBC), hematocrit (HGT), mean corpuscular volume (MCV), hemoglobin (HGB), mean corpuscular hemoglobin (MCH) and mean corpuscular hemoglobin concentration (MCHC) was determined for each group.
After 7 days the rats were sacrificed and samples were taken to determine white blood cell count. Neutrophils (percent segmented neutrophils), monocytes, basophils, lymphocytes, eosinophil and white blood cell (WBC) was determined for each group.
After 7 days the rats were sacrificed and samples were taken to determine serum chemistry. The alkaline phosphatase (ALP), aspartate transaminase (AST), alanine transaminase (ALT) and creatine phosphokinase (CPK) was determined for each group.
After 7 days the rats were sacrificed and samples were taken to determine liver protein levels. The level of albumin, globulin and total protein was determined for each group.
Doses as high as 30 times the effective dose appear to be safe from this analysis.

[1] = tested on: peripheral blood mononuclear cells (PBMC); type: cell-based, human; details: three human PBMC donors
Experimental: 500 ng of G-CSF mRNA modified with 5-methylcytosine (5mC) and pseudouridine (pseudoU) or unmodified G-CSF mRNA was transfected with 0.4 uL of Lipofectamine 2000 into peripheral blood mononuclear cells (PBMC) from three normal blood donors (D1, D2, and D3). […] The supernatant was harvested 6 hours and 18 hours after transfection and run by ELISA to determine the protein expression. The expression of G-CSF, IFN-alpha, and TNF-alpha for Donor 1 is shown in Table 88, Donor 2 is shown in Table 89 and Donor 3 is shown in Table 90.

BALB/C mice = test: Example 59: G-CSF mRNA IM in mice, serum human G-CSF and mouse IFN-alpha ELISA (Table 93); type: in vivo
C57BL/6 = test: Example 115 (second): human EPO mRNA in mannitol multi-dose, serum EPO (Table 187); type: in vivo, mice; details: IM 2.5 mg/kg per dose
Experimental: Serum was collected from the mice 24 hours post the second, fourth, sixth and eighth doses.

[2] = I.M., 200 ug/mouse (R848 75 ug/mouse), 50 ul, 8 hours after dosing

## Luciferase: luciferase mRNA, SEQ ID NO: 14, Cap1, fully modified with 5-methylcytosine and pseudouridine
Sprague-Dawley rats; 100 ug
  Mean weight Gain: 16.875 g
  Weight Gain: 6.5%
  ALP: 144.4 IU/L
  ALT: 60.8 IU/L
  AST: 198.3 IU/L
  Albumin: 3.3 g/dL
  Basophils (BASO %): 0.4%
  Bicarbonate: 19.9 mEg/L
  CPK: 488.1 IU/L
  Calcium: 9.8 mg/dL
  Chloride: 101.0 mEg/L
  Eosinophils (EOS %): 1.3%
  Globulin: 2.5 g/dL
  HCT: 44.1%
  HGB: 14.7 g/dL
  Lymphocytes (LYM %): 85.9%
  MCH: 19.5 pg
  MCV: 58.7 fL
  Monocytes (MON %): 2.0%
  Neutrophil (NEU-SEG %): 10.6%
  Phosphorus: 8.3 mg/dL
  Potassium: 4.7 mEg/L
  RBC: 7.5 Million/uL
  Sodium: 139.6 mEg/L
  Total Protein: 5.8 g/dL
  WBC: 14 Thous./uL
Sprague-Dawley rats; 300 ug
  Mean weight Gain: 22.125 g
  Weight Gain: 8.3%
  ALP: 169.5 IU/L
  ALT: 49.3 IU/L
  AST: 200.3 IU/L
  Albumin: 3.2 g/dL
  Basophils (BASO %): 0.4%
  Bicarbonate: 23.3 mEg/L
  CPK: 968.3 IU/L
  Calcium: 9.8 mg/dL
  Chloride: 100.5 mEg/L
  Eosinophils (EOS %): 1.0%
  Globulin: 2.4 g/dL
  HCT: 43.5%
  HGB: 14.5 g/dL
  Lymphocytes (LYM %): 83.6%
  MCH: 19.8 pg
  MCHC: 33.3 g/dL
  MCV: 59.6 fL
  Monocytes (MON %): 2.8%
  Neutrophil (NEU-SEG %): 12.0%
  Phosphorus: 8.2 mg/dL
  Potassium: 4.4 mEg/L
  RBC: 7.3 Million/uL
  Sodium: 139.6 mEg/L
  Total Protein: 5.6 g/dL
  WBC: 10.2 Thous./uL
Sprague-Dawley rats; 1000 ug
  Mean weight Gain: 19 g
  Weight Gain: 6.95%
  ALP: 150.5 IU/L
  ALT: 51.5 IU/L
  AST: 189.8 IU/L
  Albumin: 3.2 g/dL
  Bicarbonate: 22.5 mEg/L
  CPK: 744 IU/L
  Calcium: 10.6 mg/dL
  Chloride: 101.0 mEg/L
  Eosinophils (EOS %): 1.5%
  Globulin: 2.7 g/dL
  HCT: 42.5%
  HGB: 14.2 g/dL
  Lymphocytes (LYM %): 83.0%
  MCH: 19.55 pg
  MCHC: 33.3 g/dL
  MCV: 58.8 fL
  Monocytes (MON %): 2.3%
  Neutrophil (NEU-SEG %): 12.8%
  Phosphorus: 9.1 mg/dL
  Potassium: 5.2 mEg/L
  RBC: 7.2 Million/uL
  Sodium: 138.8 mEg/L
  Total Protein: 5.9 g/dL
  WBC: 10.7 Thous./uL
Sprague-Dawley rats; 3 × 1000 ug
  Mean weight Gain: 20.375 g
  Weight Gain: 7.7%
  ALP: 152.0 IU/L
  ALT: 45.9 IU/L
  Albumin: 3.4 g/dL
  Basophils (BASO %): 0.1%
  Bicarbonate: 22.6 mEg/L
  CPK: 481.1 IU/L
  Calcium: 10.2 mg/dL
  Chloride: 100.4 mEg/L
  Eosinophils (EOS %): 0.9%
  Globulin: 2.6 g/dL
  HCT: 43.5%
  HGB: 14.4 g/dL
  Lymphocytes (LYM %): 85.5%
  MCH: 20.0 pg
  MCHC: 33.1 g/dL
  MCV: 60.6 fL
  Monocytes (MON %): 2.0%
  Neutrophil (NEU-SEG %): 11.6%
  Phosphorus: 8.11 mg/dL
  Potassium: 4.6 mEg/L
  RBC: 7.2 Million/uL
  Sodium: 138.8 mEg/L
  Total Protein: 6.0 g/dL
  WBC: 10.9 Thous./uL
Sprague-Dawley rats; 7 days
  adverse effects of high doses: do not result in adverse effects
  blood count and clotting factors: no change in blood count or blood clotting factors
  electrolytes: no change in electrolytes
  liver enzyme and liver protein production: no change seen in liver enzyme or liver protein production
  weight gain and behaviour: All animals continued to gain weight and behave normally
  white blood cells: no increase in white blood cells
Sprague-Dawley rats; rat, in vivo
  dose that appears to be safe: 30 times the effective dose
  histopathology at the site of injection: only minimal inflammation at the site of injection

B1: G-CSF: modified mRNA encoding human G-CSF, SEQ ID NO: 4, Cap1, fully modified with 5-methylcytosine and pseudouridine; LNP-formulated in Examples 16-22 (nucleic acid)
chain: GGGAAAUAAGAGAGAAAAGAAGAGUAAGAAGAAAUAUAAGAGCCACCAUGGCCGGUCCCGCGACCCAAAGCCCCAUGAAACUUAUGGCCCUGCAGUUGCUGCUUUGGCACUCGGCCCUCUGGACAGUCCAAGAAGCGACUCCUCUCGGACCUGCCUCAUCGUUGCCGCAGUCAUUCCUUUUGAAGUGUCUGGAGCAGGUGCGAAAGAUUCAGGGCGAUGGAGCCGCACUCCAAGAGAAGCUCUGCGCGACAUACAAACUUUGCCAUCCCGAGGAGCUCGUACUGCUCGGGCACAGCUUGGGGAUUCCCUGGGCUCCUCUCUCGUCCUGUCCGUCGCAGGCUUUGCAGUUGGCAGGGUGCCUUUCCCAGCUCCACUCCGGUUUGUUCUUGUAUCAGGGACUGCUGCAAGCCCUUGAGGGAAUCUCGCCAGAAUUGGGCCCGACGCUGGACACGUUGCAGCUCGACGUGGCGGAUUUCGCAACAACCAUCUGGCAGCAGAUGGAGGAACUGGGGAUGGCACCCGCGCUGCAGCCCACGCAGGGGGCAAUGCCGGCCUUUGCGUCCGCGUUUCAGCGCAGGGCGGGUGGAGUCCUCGUAGCGAGCCACCUUCAAUCAUUUUUGGAAGUCUCGUACCGGGUGCUGAGACAUCUUGCGCAGCCGUGAAGCGCUGCCUUCUGCGGGGCUUGCCUUCUGGCCAUGCCCUUCUUCUCUCCCUUGCACCUGUACCUCUUGGUCUUUGAAUAAAGCCUGAGUAGGAAG
modifications: Cap1, 5-methylcytosine, pseudouridine
[1]
  protein translation and cytokine production: most protein translation (G-CSF) and the least amount of cytokine
BALB/C mice; [2]
  G-CSF protein (human, serum): 356.5 pg/mL
  IFN-alpha expression (mouse, serum): 8.87 pg/mL
BALB/C mice; I.M., 200 ug/mouse (R848 75 ug/mouse), 8 hours after dosing
  PC Ratio (Protein: Cytokine Ratio): 40
BALB/C mice; IM, 8 hours
  mouse IFN-alpha in the serum (cytokine response): low but detectable cytokine response

B2: EPO: modified mRNA encoding human erythropoietin, SEQ ID NO: 7, Cap1, fully modified with 5-methylcytosine and pseudouridine; LNP NPA-060-1 in Examples 17-22 (nucleic acid)
chain: GGGAAAUAAGAGAGAAAAGAAGAGUAAGAAGAAAUAUAAGAGCCACCAUGGGAGUGCACGAGUGUCCCGCGUGGUUGUGGUUGCUGCUGUCGCUCUUGAGCCUCCCACUGGGACUGCCUGUGCUGGGGGCACCACCCAGAUUGAUCUGCGACUCACGGGUACUUGAGAGGUACCUUCUUGAAGCCAAAGAAGCCGAAAACAUCACAACCGGAUGCGCCGAGCACUGCUCCCUCAAUGAGAACAUUACUGUACCGGAUACAAAGGUCAAUUUCUAUGCAUGGAAGAGAAUGGAAGUAGGACAGCAGGCCGUCGAAGUGUGGCAGGGGCUCGCGCUUUUGUCGGAGGCGGUGUUGCGGGGUCAGGCCCUCCUCGUCAACUCAUCACAGCCGUGGGAGCCCCUCCAACUUCAUGUCGAUAAAGCGGUGUCGGGGCUCCGCAGCUUGACGACGUUGCUUCGGGCUCUGGGCGCACAAAAGGAGGCUAUUUCGCCGCCUGACGCGGCCUCCGCGGCACCCCUCCGAACGAUCACCGCGGACACGUUUAGGAAGCUUUUUAGAGUGUACAGCAAUUUCCUCCGCGGAAAGCUGAAAUUGUAUACUGGUGAAGCGUGUAGGACAGGGGAUCGCUGAUAAGCUGCCUUCUGCGGGGCUUGCCUUCUGGCCAUGCCCUUCUUCUCUCCCUUGCACCUGUACCUCUUGGUCUUUGAAUAAAGCCUGAGUAGGAAG
modifications: Cap1, 5-methylcytosine, pseudouridine
C57BL/6; serum 24 hours post eighth dose
  Eighth Dose EPO: 7.9 pg/mL
C57BL/6; serum 24 hours post fourth dose
  Fourth Dose EPO: 44.3 pg/mL
C57BL/6; serum 24 hours post second dose
  Second Dose EPO: 43.5 pg/mL
C57BL/6; serum 24 hours post sixth dose
  Sixth Dose EPO: 46.3 pg/mL
